*1 amine or outer side, *2 acyl side, *3 side chain or, on linkers, in order; H or OH if unused. Where a SMILES comes first, the peptide text is derived from it. [ ]: non-standard residue; d: D form. The star is where a group is joined. ξ: configuration not given here. Leu(4,5-dehydro) = C=C(C)C[C@H](N)C(=O)O; X2 = O=C(/C=C/c1ccc(N[*:1])cc1)[*:2]; Ala(cPr) = N[C@@H](CC1CC1)C(=O)O; X1 = O=C(Cc1ccc(N[*:1])cc1)[*:2]; Aad = N[C@@H](CCCC(=O)O)C(=O)O; Ile(3ξ) = CCC(C)[C@H](N)C(=O)O; NH(2-Me-phenyl) = Cc1ccccc1N*; hLeu = CC(C)CC[C@H](N)C(=O)O; X12 = c1ccc(Oc2ccccc2N*)cc1; Dpg = CCCC(N)(CCC)C(=O)O; Nle = CCCC[C@H](N)C(=O)O; Abu = CC[C@H](N)C(=O)O; Ac3c = NC1(C(=O)O)CC1; CO = O=C([*:1])[*:2]
Each compound was assayed against Integrin alpha-4/beta-1 (Homo sapiens, UniProt P05556+P13612, T112H) (assay: Jurkat Cell Adhesion Inhibition Assay). Details: not given.
Protocol: Binding affinities (IC50) of the ligands were studied in a Jurkat cell adhesion assay by inhibiting the alpha-4/beta-1 mediated cell adhesion to CS-1 peptides. The 96-well plates were coated with neutravidin, followed by biotinconjugated CS-1 peptides. Jurkat cells with series dilutions of tested ligands in binding buffer were added and allowed to bind for 30 min. Bound cells were recorded using a 96-well plate reader at 570 nm. IC50 values were calculated from inhibition curves resulting from the concentration-dependent inhibition

SMILES | IC50 [nM]
CCC(C)[C@H](NC(=O)[C@H](CC(=O)O)NC(=O)[C@H](CC1CC1)NC(=O)Cc1ccc(NC(=O)Nc2ccccc2C)cc1)C(=O)N1CCC[C@H]1C(N)=O (stereo partly drawn) [(3S)-3-{[(2S,3S)-1-[(2S)-2-carbamoylpyrrolidin-1-yl]-3-methyl-1-oxopentan-2-yl]carbamoyl}-3-[(2S)-3-cyclopropyl-2-[1-(4-{[(2-methylphenyl)carbamoyl]amino}phenyl)acetamido]propanamido]propanoic acid] ({NH(2-Me-phenyl)-CO}-[X1][Ala(cPr)]D[Ile(3ξ)]P-NH2) | 64
CCCC[C@H](NC(=O)Cc1ccc(NC(=O)Nc2ccccc2C)cc1)C(=O)N[C@@H](CC(=O)O)C(=O)NC1(C(=O)N2CCC[C@H]2C(N)=O)CC1 [(3S)-3-[(1-{[(2S)-2-carbamoylpyrrolidin-1-yl]carbonyl}cyclopropyl)carbamoyl]-3-[(2S)-2-[1-(4-{[(2-methylphenyl)carbamoyl]amino}phenyl)acetamido]hexanamido]propanoic acid] ({NH(2-Me-phenyl)-CO}-[X1][Nle]D[Ac3c]P-NH2) | 9.2
CCC(C)[C@H](NC(=O)[C@H](CC(=O)O)NC(=O)[C@H](CC(C)C)NC(=O)Cc1ccc(NC(=O)Nc2ccccc2C)cc1)C(=O)N1CCC[C@H]1C(N)=O (stereo partly drawn) [(3S)-3-{[(2S,3S)-1-[(2S)-2-carbamoylpyrrolidin-1-yl]-3-methyl-1-oxopentan-2-yl]carbamoyl}-3-[(2S)-4-methyl-2-[1-(4-{[(2-methylphenyl)carbamoyl]amino}phenyl)acetamido]pentanamido]propanoic acid] ({NH(2-Me-phenyl)-CO}-[X1]LD[Ile(3ξ)]P-NH2) | 1.9
CCCC[C@H](NC(=O)/C=C/c1ccc(NC(=O)Nc2ccccc2C)cc1)C(=O)N[C@@H](CC(=O)O)C(=O)N[C@H](C(=O)N1CCC[C@H]1C(N)=O)C(C)CC (stereo partly drawn) [(3S)-3-{[(2S,3S)-1-[(2S)-2-carbamoylpyrrolidin-1-yl]-3-methyl-1-oxopentan-2-yl]carbamoyl}-3-[(2S)-2-[(2E)-3-(4-{[(2-methylphenyl)carbamoyl]amino}phenyl)prop-2-enamido]hexanamido]propanoic acid] ({NH(2-Me-phenyl)-CO}-[X2][Nle]D[Ile(3ξ)]P-NH2) | 4.4
CCCC[C@H](NC(=O)Cc1ccc(NC(=O)Nc2ccccc2Oc2ccccc2)cc1)C(=O)N[C@@H](CC(=O)O)C(=O)N[C@H](C(=O)N1CCC[C@H]1C(N)=O)C(C)CC (stereo partly drawn) [(3S)-3-{[(2S,3S)-1-[(2S)-2-carbamoylpyrrolidin-1-yl]-3-methyl-1-oxopentan-2-yl]carbamoyl}-3-[(2S)-2-[1-(4-{[(2-phenoxyphenyl)carbamoyl]amino}phenyl)acetamido]hexanamido]propanoic acid] ({X12-CO}-[X1][Nle]D[Ile(3ξ)]P-NH2) | 500
C=C(C)C[C@H](NC(=O)Cc1ccc(NC(=O)Nc2ccccc2C)cc1)C(=O)N[C@@H](CC(=O)O)C(=O)N[C@H](C(=O)N1CCC[C@H]1C(N)=O)C(C)CC (stereo partly drawn) [(3S)-3-{[(2S,3S)-1-[(2S)-2-carbamoylpyrrolidin-1-yl]-3-methyl-1-oxopentan-2-yl]carbamoyl}-3-[(2S)-4-methyl-2-[1-(4-{[(2-methylphenyl)carbamoyl]amino}phenyl)acetamido]pent-4-enamido]propanoic acid] ({NH(2-Me-phenyl)-CO}-[X1][Leu(4,5-dehydro)]D[Ile(3ξ)]P-NH2) | 2.8
CCC(C)[C@H](NC(=O)[C@H](CC(=O)O)NC(=O)[C@H](CCC(C)C)NC(=O)Cc1ccc(NC(=O)Nc2ccccc2C)cc1)C(=O)N1CCC[C@H]1C(N)=O (stereo partly drawn) [(3S)-3-{[(2S,3S)-1-[(2S)-2-carbamoylpyrrolidin-1-yl]-3-methyl-1-oxopentan-2-yl]carbamoyl}-3-[(2S)-5-methyl-2-[1-(4-{[(2-methylphenyl)carbamoyl]amino}phenyl)acetamido]hexanamido]propanoic acid] ({NH(2-Me-phenyl)-CO}-[X1][hLeu]D[Ile(3ξ)]P-NH2) | 3
CCCC[C@H](NC(=O)Cc1ccc(NC(=O)Nc2ccccc2C)cc1)C(=O)N[C@@H](CC(=O)O)C(=O)N[C@@H](CC)C(=O)N1CCC[C@H]1C(N)=O [(3S)-3-{[(2S)-1-[(2S)-2-carbamoylpyrrolidin-1-yl]-1-oxobutan-2-yl]carbamoyl}-3-[(2S)-2-[1-(4-{[(2-methylphenyl)carbamoyl]amino}phenyl)acetamido]hexanamido]propanoic acid] ({NH(2-Me-phenyl)-CO}-[X1][Nle]D[Abu]P-NH2) | 2.9

Further lines, results first:

IC50 [nM] | SMILES
3.4 | CCCC[C@H](NC(=O)Cc1ccc(NC(=O)Nc2ccccc2C)cc1)C(=O)N[C@@H](CCCC(=O)O)C(=O)N[C@H](C(=O)N1CCC[C@H]1C(N)=O)C(C)CC (stereo partly drawn) [(5S)-5-{[(2S,3S)-1-[(2S)-2-carbamoylpyrrolidin-1-yl]-3-methyl-1-oxopentan-2-yl]carbamoyl}-5-[(2S)-2-[1-(4-{[(2-methylphenyl)carbamoyl]amino}phenyl)acetamido]hexanamido]pentanoic acid] ({NH(2-Me-phenyl)-CO}-[X1][Nle][Aad][Ile(3ξ)]P-NH2)
450 | CCCC(CCC)(NC(=O)Cc1ccc(NC(=O)Nc2ccccc2C)cc1)C(=O)N[C@@H](CC(=O)O)C(=O)N[C@H](C(=O)N1CCC[C@H]1C(N)=O)C(C)CC (stereo partly drawn) [(3S)-3-{[(2S,3S)-1-[(2S)-2-carbamoylpyrrolidin-1-yl]-3-methyl-1-oxopentan-2-yl]carbamoyl}-3-{2-[1-(4-{[(2-methylphenyl)carbamoyl]amino}phenyl)acetamido]-2-propylpentanamido}propanoic acid] ({NH(2-Me-phenyl)-CO}-[X1][Dpg]D[Ile(3ξ)]P-NH2)

Same assay, conditions: pH 7.5; 22 °C

SMILES | IC50 [nM]
CCCC[C@H](NC(=O)Cc1ccc(NC(=O)Nc2ccccc2C)cc1)C(=O)N[C@@H](CC(=O)O)C(=O)N[C@H](C(=O)N1CCC[C@@H]1C(N)=O)C(C)CC (stereo partly drawn) [(3S)-3-{[(2S,3S)-1-[(2R)-2-carbamoylpyrrolidin-1-yl]-3-methyl-1-oxopentan-2-yl]carbamoyl}-3-[(2S)-2-[1-(4-{[(2-methylphenyl)carbamoyl]amino}phenyl)acetamido]hexanamido]propanoic acid] | 2.9
CCCC[C@H](NC(=O)Cc1ccc(NC(=O)Nc2ccccc2C)cc1)C(=O)N[C@@H](CC(=O)O)C(=O)N[C@H](C(=O)N1CCC[C@H]1C(N)=O)C(C)CC (stereo partly drawn) [(3S)-3-{[(2S,3S)-1-[(2S)-2-carbamoylpyrrolidin-1-yl]-3-methyl-1-oxopentan-2-yl]carbamoyl}-3-[(2S)-2-[1-(4-{[(2-methylphenyl)carbamoyl]amino}phenyl)acetamido]hexanamido]propanoic acid] | 1.4
CCCC[C@H](NC(=O)Cc1ccc(NC(=O)Nc2ccccc2C)cc1)C(=O)N[C@@H](CC(=O)O)C(=O)N[C@H](C(=O)NC1CC[C@@H]2SC[C@@H](C(N)=O)N2C1=O)[C@@H](C)CC (stereo partly drawn) [(3S)-3-{[(1S,2S)-1-{[(3R,8aS)-3-carbamoyl-5-oxo-hexahydro-2H-pyrido[2,1-b][1,3]thiazol-6-yl]carbamoyl}-2-methylbutyl]carbamoyl}-3-[(2S)-2-[1-(4-{[(2-methylphenyl)carbamoyl]amino}phenyl)acetamido]hexanamido]propanoic acid] | 3.4
CCCC[C@H](NC(=O)Cc1ccc(NC(=O)Nc2ccccc2C)cc1)C(=O)N[C@@H](CC(=O)O)C(=O)N[C@H](C(=O)N1CC(O)C[C@H]1C(N)=O)C(C)CC (stereo partly drawn) [(3S)-3-{[(2S,3S)-1-[(2S)-2-carbamoyl-4-hydroxypyrrolidin-1-yl]-3-methyl-1-oxopentan-2-yl]carbamoyl}-3-[(2S)-2-[1-(4-{[(2-methylphenyl)carbamoyl]amino}phenyl)acetamido]hexanamido]propanoic acid] | 3
CCCC[C@H](NC(=O)Cc1ccc(NC(=O)Nc2ccccc2C)cc1)C(=O)N[C@@H](CC(=O)O)C(=O)N[C@H](C(=O)Nc1cccc(C(N)=O)c1)C(C)CC (stereo partly drawn) [(3S)-3-{[(1S,2S)-1-[(3-carbamoylphenyl)carbamoyl]-2-methylbutyl]carbamoyl}-3-[(2S)-2-[1-(4-{[(2-methylphenyl)carbamoyl]amino}phenyl)acetamido]hexanamido]propanoic acid] | 3.3

Results, then the compound that gave them:

IC50 [nM] | SMILES
3.2 | CCCC[C@H](NC(=O)Cc1ccc(NC(=O)Nc2ccccc2C)cc1)C(=O)N[C@@H](CC(=O)O)C(=O)N[C@H](C(=O)N1Cc2ccccc2C[C@@H]1C(N)=O)C(C)CC (stereo partly drawn) [(3S)-3-{[(2S,3S)-1-[(3R)-3-carbamoyl-1,2,3,4-tetrahydroisoquinolin-2-yl]-3-methyl-1-oxopentan-2-yl]carbamoyl}-3-[(2S)-2-[1-(4-{[(2-methylphenyl)carbamoyl]amino}phenyl)acetamido]hexanamido]propanoic acid]
5.3 | CCCC[C@H](NC(=O)Cc1ccc(NC(=O)Nc2ccccc2C)cc1)C(=O)N[C@@H](CC(=O)O)C(=O)N[C@H](C(=O)N1CC(OCc2ccccc2)C[C@H]1C(N)=O)C(C)CC (stereo partly drawn) [(3S)-3-{[(2S,3S)-1-[(2S)-4-(benzyloxy)-2-carbamoylpyrrolidin-1-yl]-3-methyl-1-oxopentan-2-yl]carbamoyl}-3-[(2S)-2-[1-(4-{[(2-methylphenyl)carbamoyl]amino}phenyl)acetamido]hexanamido]propanoic acid]
3.1 | CCCC[C@H](NC(=O)Cc1ccc(NC(=O)Nc2ccccc2C)cc1)C(=O)N[C@@H](CC(=O)O)C(=O)N[C@H](C(=O)N1CSC[C@H]1C(N)=O)C(C)CC (stereo partly drawn) [(3S)-3-{[(2S,3S)-1-[(4R)-4-carbamoyl-1,3-thiazolidin-3-yl]-3-methyl-1-oxopentan-2-yl]carbamoyl}-3-[(2S)-2-[1-(4-{[(2-methylphenyl)carbamoyl]amino}phenyl)acetamido]hexanamido]propanoic acid]
3.2 | CCCC[C@H](NC(=O)Cc1ccc(NC(=O)Nc2ccccc2C)cc1)C(=O)N[C@@H](CC(=O)O)C(=O)N[C@H](C(=O)N1CSC[C@@H]1C(N)=O)C(C)CC (stereo partly drawn) [(3S)-3-{[(2S,3S)-1-[(4S)-4-carbamoyl-1,3-thiazolidin-3-yl]-3-methyl-1-oxopentan-2-yl]carbamoyl}-3-[(2S)-2-[1-(4-{[(2-methylphenyl)carbamoyl]amino}phenyl)acetamido]hexanamido]propanoic acid]
